# Measurements as given in patent US20240309007A1, “CRYSTALLINE FORMS OF 3-{4-[(2R)-2-AMINOPROPOXY]PHENYL}-N-[(1R)- 1-(3-FLUOROPHENYL) ETHYL]IMIDAZO[1,2-B]PYRIDAZIN-6-AMINE AND SALTS THEREOF” (ANHEART THERAPEUTICS (HANGZHOU) CO., LTD., priority 2021, published 2024).
# “Also recorded” adds a separate entry of the source.
# How the values were obtained:
# Type in all cases: physicochemical
# [1] = Long-term stability test, 25° C./60% RH, three years; settings: for Appearance / Assay (anhydrous and solvent free basis) / Individual unspecified impurity (Maximum) / Total impurities / Water content / deF-6051: 25° C. ± 2° C./60 ± 5% RH
# Method: The long-term stability test of the crystalline form A of Compound 1 adipate was performed by storing a sample at 25°±2° C./[…] for three years.
# [2] = Accelerated stability test, 40° C./75% RH, six months; settings: for Appearance / Assay Adipic acid (potentiometric titration) / Assay DS-6051a (HPLC)/ (anhydrous and solvent free basis) / Related substances (UPLC) Total impurities / Water content (KF) / Related substances (UPLC) Unspecified individual impurity / Crystal form (XRPD): 40° C. ± 2° C./75 ± 5% RH; for Crystal form (XRPD): consistent with reference standard
# Method: The accelerated stability test of the crystalline form A of Compound 1 adipate was performed by storing a sample at 40° C.±2° C./[…] for six months.
# [3] = Solubility of the crystalline form in buffers, SGF, FaSSIF, FeSSIF and water at 37° C. (HPLC; XRPD of undissolved solid); settings: for solubility at 2 h / solubility at 24 h: 37 °C, thermodynamic from solid
# Text: (1) a KCl/HCl buffer solution with a pH of 1.0, (2) a potassium hydrogen phthalate buffer solution with a pH of 3.0, (3) a sodium acetate trihydrate buffer solution with a pH of 4.5, (4) a potassium dihydrogen phosphate buffer solution with a pH of 6.0, (5) a potassium dihydrogen phosphate buffer solution with a pH of 7.5, (6) SGF (simulated gastric fluid), (7) FaSSIF (fasted state simulated intestinal fluids, pH=6.5), (8) FeSSIF (fed state simulated intestinal fluids, pH=5.0), and (9) water. Each mixture was then stirred in a water bath at 37° C. After equilibrated for 2 hours and 24 hours, concentrations (mg/mL) of the crystal in the mixture were measured by HPLC and the undissolved solid was evaluated by XRPD.
# [4] = Dynamic Vapor Sorption (DVS), hygroscopicity
# Method: Dynamic Vapor Sorption (DVS) was performed by using Intrinsic DVS (Surface Measurement Systems, UK). A sample was weighed in an amount of 20-30 mg and was placed in a sample chamber. The measurement was performed at DMDT mode when the temperature of the sample chamber was maintained at 25±1° C.
# [5] = FaSSIF (fasted state simulated intestinal fluid), pH 6.5, fassif
# [6] = FeSSIF (fed state simulated intestinal fluid), pH 5, fessif
# [7] = KCl/HCl buffer, pH 1, simulated gastric fluid
# [8] = SGF (simulated gastric fluid), 37° C.
# [9] = SGF (simulated gastric fluid), simulated gastric fluid
# [10] = potassium dihydrogen phosphate buffer pH 6.0, 37° C.
# [11] = potassium dihydrogen phosphate buffer pH 7.5, 37° C.
# [12] = potassium dihydrogen phosphate buffer, pH 6, aqueous buffer
# [13] = potassium dihydrogen phosphate buffer, pH 7.5, aqueous buffer
# [14] = potassium hydrogen phthalate buffer pH 3.0, 37° C.
# [15] = potassium hydrogen phthalate buffer, pH 3, aqueous buffer
# [16] = sodium acetate trihydrate buffer pH 4.5, 37° C.
# [17] = sodium acetate trihydrate buffer, pH 4.5, aqueous buffer
smiles,measurement,setting,value
"C[C@@H](N)COc1ccc(-c2cnc3ccc(N[C@H](C)c4cccc(F)c4)nn23)cc1 [crystalline form A of Compound 1 adipate, 3-{4-[(2R)-2-aminopropoxy]phenyl}-N-[(1R)-1-(3-fluorophenyl)ethyl]imidazo[1,2-b]pyridazin-6-amine]",stability (in words),[1],superior stability
same,Appearance,[1]; 0 M,White
same,Assay (anhydrous and solvent free basis),[1]; 0 M,100.0%
same,Individual unspecified impurity (Maximum),[1]; 0 M,0.09%
same,Total impurities,[1]; 0 M,0.61%
same,Water content,[1]; 0 M,0.07%
same,deF-6051,[1]; 0 M,0.46%
same,Appearance,[1]; 3 M,White
same,Assay (anhydrous and solvent free basis),[1]; 3 M,100.0%
same,Individual unspecified impurity (Maximum),[1]; 3 M,0.09%
same,Total impurities,[1]; 3 M,0.61%
same,Water content,[1]; 3 M,0.08%
same,deF-6051,[1]; 3 M,0.46%
same,Appearance,[1]; 6 M,White
same,Assay (anhydrous and solvent free basis),[1]; 6 M,100.0%
same,Individual unspecified impurity (Maximum),[1]; 6 M,0.09%
same,Total impurities,[1]; 6 M,0.54%
same,Water content,[1]; 6 M,0.11%
same,deF-6051,[1]; 6 M,0.45%
same,Appearance,[1]; 9 M,White
same,Assay (anhydrous and solvent free basis),[1]; 9 M,99.9%
same,Individual unspecified impurity (Maximum),[1]; 9 M,0.09%
same,Total impurities,[1]; 9 M,0.60%
same,Water content,[1]; 9 M,0.08%
same,deF-6051,[1]; 9 M,0.46%
same,Appearance,[1]; 12 M,White
same,Assay (anhydrous and solvent free basis),[1]; 12 M,100.2%
same,Individual unspecified impurity (Maximum),[1]; 12 M,0.09%
same,Total impurities,[1]; 12 M,0.55%
same,Water content,[1]; 12 M,0.09%
same,deF-6051,[1]; 12 M,0.46%
same,Appearance,[1]; 18 M,White
same,Assay (anhydrous and solvent free basis),[1]; 18 M,100.2%
same,Individual unspecified impurity (Maximum),[1]; 18 M,0.09%
same,Total impurities,[1]; 18 M,0.55%
same,Water content,[1]; 18 M,0.06%
same,deF-6051,[1]; 18 M,0.46%
same,Appearance,[1]; 24 M,White
same,Assay (anhydrous and solvent free basis),[1]; 24 M,99.7%
same,Individual unspecified impurity (Maximum),[1]; 24 M,0.09%
same,Total impurities,[1]; 24 M,0.54%
same,Water content,[1]; 24 M,0.07%
same,deF-6051,[1]; 24 M,0.45%
same,Appearance,[1]; 36 M,White
same,Assay (anhydrous and solvent free basis),[1]; 36 M,100.0%
same,Individual unspecified impurity (Maximum),[1]; 36 M,0.09%
same,Total impurities,[1]; 36 M,0.53%
same,Water content,[1]; 36 M,0.06%
same,deF-6051,[1]; 36 M,0.44%
same,time stable at room temperature in a sealed container,"[1]; room temperature, sealed container",at least 36 months
same,stability (in words),[2],superior stability
same,Appearance,[2]; 0 M,White
same,Assay Adipic acid (potentiometric titration),[2]; 0 M,26.2%
same,Assay DS-6051a (HPLC)/ (anhydrous and solvent free basis),[2]; 0 M,99.5%
same,Related substances (UPLC) Total impurities,[2]; 0 M,0.05%
same,Water content (KF),[2]; 0 M,0.2%
same,Related substances (UPLC) Unspecified individual impurity,"[2]; 0 M, RRT1.48",0.05%
same,Crystal form (XRPD),[2]; 0 M,conform
same,Appearance,[2]; 1 M,White
same,Assay Adipic acid (potentiometric titration),[2]; 1 M,26.5%
same,Assay DS-6051a (HPLC)/ (anhydrous and solvent free basis),[2]; 1 M,100.1%
same,Related substances (UPLC) Total impurities,[2]; 1 M,<0.05%
same,Related substances (UPLC) Unspecified individual impurity,[2]; 1 M,<0.05%
same,Water content (KF),[2]; 1 M,0.1%
same,Crystal form (XRPD),[2]; 1 M,conform
same,Appearance,[2]; 2 M,White
same,Assay Adipic acid (potentiometric titration),[2]; 2 M,26.4%
same,Assay DS-6051a (HPLC)/ (anhydrous and solvent free basis),[2]; 2 M,99.6%
same,Related substances (UPLC) Total impurities,[2]; 2 M,<0.05%
same,Related substances (UPLC) Unspecified individual impurity,[2]; 2 M,<0.05%
same,Water content (KF),[2]; 2 M,0.1%
same,Crystal form (XRPD),[2]; 2 M,conform
same,Appearance,[2]; 3 M,White
same,Assay Adipic acid (potentiometric titration),[2]; 3 M,26.2%
same,Assay DS-6051a (HPLC)/ (anhydrous and solvent free basis),[2]; 3 M,99.5%
same,Related substances (UPLC) Total impurities,[2]; 3 M,<0.05%
same,Related substances (UPLC) Unspecified individual impurity,[2]; 3 M,<0.05%
same,Water content (KF),[2]; 3 M,0.1%
same,Crystal form (XRPD),[2]; 3 M,conform
same,Appearance,[2]; 6 M,White
same,Assay Adipic acid (potentiometric titration),[2]; 6 M,26.2%
same,Assay DS-6051a (HPLC)/ (anhydrous and solvent free basis),[2]; 6 M,99.0%
same,Related substances (UPLC) Total impurities,[2]; 6 M,<0.05%
same,Related substances (UPLC) Unspecified individual impurity,[2]; 6 M,<0.05%
same,Water content (KF),[2]; 6 M,0.1%
same,Crystal form (XRPD),[2]; 6 M,conform
same,solubility at 2 h,[3]; [5],331 µg/mL
same,solubility at 24 h,[3]; [5],225 µg/mL
same,XRPD of undissolved solid,"[3]; FaSSIF (pH=6.5), 37° C.",changed
same,pH after 24 hours,"[3]; FaSSIF (pH=6.5), 37° C.",5.008
same,solubility at 2 h,[3]; [6],493 µg/mL
same,solubility at 24 h,[3]; [6],143 µg/mL
same,XRPD of undissolved solid,"[3]; FeSSIF (pH=5.0), 37° C.",Form A
same,pH after 24 hours,"[3]; FeSSIF (pH=5.0), 37° C.",4.205
same,XRPD of undissolved solid,"[3]; KCl/HCl buffer pH 1.0, 37° C.",changed
same,pH after 24 hours,"[3]; KCl/HCl buffer pH 1.0, 37° C.",3.746
same,solubility at 2 h,[3]; [7],20400 µg/mL
same,solubility at 24 h,[3]; [7],17800 µg/mL
same,XRPD of undissolved solid,[3]; [8],changed
same,pH after 24 hours,[3]; [8],5.281
same,solubility at 2 h,[3]; [9],15600 µg/mL
same,solubility at 24 h,[3]; [9],16000 µg/mL
same,solubility (in words),[3]; pH 1,superior solubility
same,XRPD of undissolved solid,[3]; [10],Form A
same,pH after 24 hours,[3]; [10],5.055
same,XRPD of undissolved solid,[3]; [11],changed
same,pH after 24 hours,[3]; [11],5.570
same,solubility at 2 h,[3]; [12],2340 µg/mL
same,solubility at 24 h,[3]; [12],1700 µg/mL
same,solubility at 2 h,[3]; [13],597 µg/mL
same,solubility at 24 h,[3]; [13],419 µg/mL
same,XRPD of undissolved solid,[3]; [14],changed
same,pH after 24 hours,[3]; [14],4.418
same,solubility at 2 h,[3]; [15],1350 µg/mL
same,solubility at 24 h,[3]; [15],852 µg/mL
same,XRPD of undissolved solid,[3]; [16],Form A
same,pH after 24 hours,[3]; [16],4.541
same,solubility at 2 h,[3]; [17],2840 µg/mL
same,solubility at 24 h,[3]; [17],2880 µg/mL
same,XRPD of undissolved solid,"[3]; water, 37° C.",Form A
same,pH after 24 hours,"[3]; water, 37° C.",5.115
same,solubility at 2 h,[3]; water,1610 µg/mL
same,solubility at 24 h,[3]; water,1410 µg/mL
same,crystalline form (XRPD) of the sample before and after the DVS test,[4],did not change
same,weight increase (DVS),"[4]; at 80% RH, 25±1° C.",0.235%
same,hygroscopicity (in words),[4]; from DVS weight increase at 80% RH,low hygroscopicity; also recorded: very low or nearly no hygroscopicity
